Reference: the NIST ThermoML archive (doi:10.1016/j.jct.2009.01.014)
“And” between values parts separate entries of the source, which are not always exact repeats. Equal values may be shown once.

Experiment: molar heat capacity at constant pressure
Conditions: 101.33 kPa, Crystal 1, Vacuum adiabatic calorimetry

[Al+3].[Al+3].[Co+2].[O-2].[O-2].[O-2].[O-2] [aluminium cobalt oxide]
Conditions	molar heat capacity at constant pressure
264.3 K	110.3 J/K/mol
266.6 K	111.11 J/K/mol
267.21 K	111.27 J/K/mol
268.89 K	111.88 J/K/mol
270 K	112.21 J/K/mol
270.34 K	112.32 J/K/mol
271.18 K	112.63 J/K/mol
273.45 K	113.32 J/K/mol and 113.36 J/K/mol
275.72 K	114.12 J/K/mol
276.55 K	114.32 J/K/mol
277.98 K	114.86 J/K/mol
279.64 K	115.3 J/K/mol
280 K	115.49 J/K/mol
280.23 K	115.61 J/K/mol
282.47 K	116.23 J/K/mol
282.71 K	116.25 J/K/mol
284.71 K	117.01 J/K/mol
285.76 K	117.27 J/K/mol
286.94 K	117.64 J/K/mol
288.8 K	118.11 J/K/mol
289.16 K	118.27 J/K/mol
290 K	118.56 J/K/mol
291.38 K	118.88 J/K/mol
291.83 K	118.87 J/K/mol
293.59 K	119.39 J/K/mol
294.84 K	119.71 J/K/mol
295.8 K	120.14 J/K/mol
297.85 K	120.6 J/K/mol
298 K	120.75 J/K/mol
298.15 K	120.8 J/K/mol
300 K	121.29 J/K/mol
300.19 K	121.32 J/K/mol
300.84 K	121.4 J/K/mol
302.38 K	121.76 J/K/mol
304.56 K	122.44 J/K/mol
306.74 K	123.1 J/K/mol
308.91 K	123.82 J/K/mol
310 K	124.03 J/K/mol
311.08 K	124.21 J/K/mol
314.58 K	125.39 J/K/mol
316.31 K	125.57 J/K/mol
318.27 K	126.1 J/K/mol
320 K	126.56 J/K/mol
320.27 K	126.63 J/K/mol
322.26 K	127.06 J/K/mol
324.24 K	127.71 J/K/mol
326.23 K	128.15 J/K/mol
328.22 K	128.71 J/K/mol
330 K	129.18 J/K/mol
330.21 K	129.23 J/K/mol
332.21 K	129.58 J/K/mol
334.2 K	130.14 J/K/mol
336.19 K	130.48 J/K/mol
338.18 K	131.04 J/K/mol
340 K	131.5 J/K/mol
340.18 K	131.54 J/K/mol
342.17 K	132 J/K/mol
344.16 K	132.51 J/K/mol
346.15 K	132.95 J/K/mol
348.15 K	133.41 J/K/mol
350 K	133.79 J/K/mol
350.14 K	133.82 J/K/mol
352.14 K	134.31 J/K/mol
354.14 K	134.84 J/K/mol
356.13 K	135.27 J/K/mol
358.13 K	135.71 J/K/mol
360 K	136.1 J/K/mol
360.13 K	136.12 J/K/mol
362.13 K	136.47 J/K/mol
364.13 K	136.92 J/K/mol
366.13 K	137.31 J/K/mol
368.13 K	137.72 J/K/mol
370 K	138.26 J/K/mol
370.14 K	138.29 J/K/mol
372.14 K	138.51 J/K/mol
374.14 K	138.93 J/K/mol
376.14 K	139.33 J/K/mol
378.15 K	139.67 J/K/mol
380 K	140.09 J/K/mol
380.15 K	140.12 J/K/mol
382.16 K	140.49 J/K/mol
384.17 K	140.86 J/K/mol
386.17 K	141.18 J/K/mol
388.18 K	141.53 J/K/mol
390 K	141.96 J/K/mol
390.19 K	142 J/K/mol
392.2 K	142.2 J/K/mol
394.22 K	142.53 J/K/mol
396.23 K	142.78 J/K/mol
398.24 K	143.19 J/K/mol
400.25 K	143.52 J/K/mol
